Data set [1] concerns human Survivin RNA. Description: Survivin mRNA knockdown in transfected 15PC3 cells by real-time PCR. The format is cell-based. As for the experimental part:
Cell culturing and transfections: 15PC3 cells were seeded in 12-well plates and grown for two days at 37° C. (5% CO2) in DMEM supplemented with 10% FBS, Glutamax I and Gentamicin. When the cells were 60-70% confluent, they were transfected in duplicates with different concentrations of oligonucleotides (0.2-25 nM) using Lipofectamine 2000 (10 μg/ml). Transfections were carried out essentially as described by Dean et al. (1994, JBC 269:16416-16424). In short, cells were incubated for 10 min. with Lipofectamine in OptiMEM followed by addition of oligonucleotide to a total volume of 0.5 ml transfection mix per well. […] Cells were then harvested for protein and RNA analysis.
Total RNA was isolated using RNeasy mini kit (Qiagen). Cells were washed with PBS, and Cell Lysis Buffer (RTL, Qiagen) supplemented with 1% mercaptoethanol was added directly to the wells. After a few minutes, the samples were processed according to manufacturer's instructions.
First strand synthesis was performed using OmniScript Reverse Transcriptase kit according to the manufacturer's instructions (Qiagen). For each sample, 0.5 μg total RNA was adjusted to 12 μl and mixed with 0.2 μl poly (dT)12-18 (0.5 μg/μl) (Life Technologies), 2 μl dNTP mix (5 mM each), 2 μl 10× RT buffer, 0.5 μl RNAguard™ RNase Inhibitor (33 units/ml, Amersham) and 1 μl OmniScript Reverse Transcriptase followed by incubation at 37° C. for 60 min. and heat inactivation at 93° C. for 5 min.
To determine the relative Survivin mRNA level in oligonucleotide treated and untreated cells, the generated cDNA was used in quantitative PCR analysis using an iCycler from BioRad. The cDNA was diluted 5-fold and 8 μl was mixed with 52 μl Taqman probe master mix containing 30 μl Platinum Quantitative PCR SuperMix UDG 2×PCR master mix (Invitrogen), 3 μl 20× Taqman probe and primer mix (forward primer: 5′[…] (SEQ ID NO:29), final 0.9 μM. Reverse primer: 5′[…] (SEQ ID NO:30), final 0.6 μM and taqman probe: FAM-[…]-TAMRA (SEQ ID NO:31), final 0.1 μM) and 19 μl H2O. The 60 μl were dispersed in two wells (96 well plates) with […] in each well. For human Bcl-2 the PCR primers were: […]
The primers and probe were obtained from […] (France). To normalize any variance in sample preparation, the endogenous GAPDH mRNA was quantified using a pre-developed Taqman assay reagent from Applied Biosystems (4310884E) according to manufacturer's Instructions. Two-fold dilutions of cDNA, synthesised from untreated 15PC3 cells (expressing both Survivin and GAPDH), was used to prepare standard curves for the assays. The PCR program was as follows: 50° C. for 2 min., 95° C. for 10 min. followed by 40 cycles of 95° C. 15 sec., 60° C. 1 min. Relative quantities of Survivin mRNA were determined from the calculated threshold cycle using the iCycler IQ Real Time Detection System software.
In accordance with the present invention, a series of oligonucleotides were designed to target different regions of the human Survivin RNA, using published sequences (GenBank accession number NM_001168).
LNA oligonucleotides were evaluated for their potential to knockdown Survivin mRNA in 15PC3 cells. The data are presented as percentage down-regulation relative to mock transfected cells. Transcript steady state was monitored by Real-time PCR and normalised to the GAPDH transcript steady state, see Table 3. Note that all LNA C are 5-methyl-Cytosine.
Background: In qPCR the cycle at which signal appears reflects the starting amount.

Data set [2] deals with 15PC3 cells. As to the kind of experiment: Caspase 3/7 activity (apoptosis) in transfected 15PC3 cells. The conditions noted are these: for Apoptosis At 5 nM, 24 hours: 24 hours (Table 7, FIG. 3); for Max Apoptosis: 25 nM, 48 hours (Table 7). It counts as cell-based, human. As for the experimental part: (§1) Culturing of cells: 15PC3 was cultured in DMEM (Sigma) containing 10% fetal bovine serum, Glutamax I and gentamicin at 37° C., 95% humidity and 5% CO2. The cervical carcinoma cell line HeLa were cultured in MEM (Sigma) containing 10% fetal bovine serum, Glutamax I and gentamicin at 37° C., 95% humidity and 5% CO2. When reaching 60-70% confluency, the cells were transfected using Lipofectamine 2000 (5 μg/ml).
15PC3 cells were seeded to a density of 10000 cells per well in white 96-well plates (Nunc 136101) in DMEM the day prior to transfection. The next day cells were washed once in prewarmed OptiMEM followed by addition of 72 μl OptiMEM containing 5 μg/ml Lipofectamine-2000 (In vitrogen). Cells were incubated for 7 min before adding 18 μl oligonucleotides diluted in OptiMEM. The final oligonucleotide concentration ranged from 0.2 nM to 100 nM. After 4 hours of treatment, cells were washed in OptiMEM and 100 μl DMEM containing serum was added. Following oligonucleotide treatment, cells were allowed to recover for the period indicated before they were removed from the CO2 incubator and equilibrated to room temperature for 15 min. 100 μl of the highly sensitive Caspase 3/7-Glo™ Reagent (Promega) was added directly to the cells, and the plates were incubated for 20 min. Luminescence (luciferase activity) was recorded in a Luminoskan Ascent instrument (Thermo Labsystems). The luciferase activity is measured as Relative Light Units per seconds (RLU/s). The data was analysed using the Ascent software 2.4.2. Graphs of fold induction relative to mock were generated using MS Excel.
Staurosporine, Camptothecine or Taxol induced cells served as positive controls (see FIGS. 3, 6A and Table 4 plus Example 21).

In data set [3] the test system is 15PC3 cells. As to the kind of experiment: MTS assay of proliferating viable cells. The format is cell-based, human. As for the experimental part: as §1
Cells were seeded to a density of 10000 cells per well in clear 96 well plate (Scientific Orange no. 1472030100) in DMEM the day prior to transfection. The next day cells were washed once in prewarmed OptiMEM followed by addition of 72 μl OptiMEM containing 5 μg/ml Lipofectamine 2000 (Invitrogen). Cells were incubated for 7 min before adding 18 μl oligonucleotides diluted in OptiMEM. […] After 4 hours of treatment, cells were washed in OptiMEM and 100 μl serum containing DMEM was added. Following oligonucleotide treatment cells were allowed to recover for the period indicated, viable cells were measured by adding 20 μl of the tetrazolium compound [3-(4,5-[…])-5-(3-carboxymethoxyphenyl)-2-(4-sulfophenyl)-2H-tetrazolium, inner salt; MTS] and an electron coupling reagent (phenazine ethosulfate, PES; CellTiter 96® AQueous One Solution Cell Proliferation Assay, Promega). Viable cells were measured at 490 nm and 650 nm in a Powerwave (Biotek Instruments).
The inhibition of growth rate ΔOD (490-650 nm)/h was plotted against the oligonucleotide concentration relative to mock, which was set to 100%. The maximum inhibition of proliferation observed in the MTS assay was 70% (minimum 30%). (Table 5 and FIG. 5)
In general terms: Tetrazolium assays rely on reduction of a dye to a coloured formazan, in cell work by metabolically active cells.

The subject of data set [4] is HeLa cells. As to the kind of experiment: Annexin V-FITC/PI flow cytometry analysis. The format is cell-based, human. The conditions noted are these: 5 nM or 25 nM. As for the experimental part:
as §1
0.4×10^6 HeLa cells were seeded in T25 flasks one day prior to transfection. On the day of transfection, the cells were washed once in 37° C. OptiMEM followed by addition of 2.8 ml OptiMEM containing 5 μg/ml Lipofectamine-2000 (In vitrogen). Cells were incubated for 7 min before adding 700 μl oligonucleotides diluted in OptiMEM to a final concentration of 5 nM or 25 nM, Mock transfected cells served as control. After 4 hours of treatment cells were washed in OptiMEM and 3 ml culture medium was added. Following oligonucleotide treatment cells were allowed to recover for 48 hours before they were harvested by scraping and washed twice in PBS. 0.2×10^6 cells were incubated with 5 μl Annexin V-FITC and 10 μl propidium iodide (PI-10 mg/ml) and incubated for 15 min at room temperature in the dark. […] Moreover, TRAIL (Apo2L) induced HeLA cells (0.5 μg/ml) were used as positive control. (See FIG. 4)

Data set [5] has as its system 15PC3 cells. Description: Cell cycle analysis by propidium iodide staining and FACS. It counts as cell-based, human. The conditions noted are these: 10 nM, 24 hours, 15PC3 cells. As for the experimental part: Cell culturing: Human prostate cancer 15PC3 cells (kindly provided by Dr. F Baas, Neurozintuigen Laboratory, AMC, The Netherlands) were seeded to a density of 8×10E5 cells in T75-flasks and grown for two days at 37° C. and 5% CO2 in DMEM supplemented with 10% FBS, Glutamax and Gentamicin. Two days following seeding cells were transfected with 2-10 nM SEQ ID NO. 2 using Lipofectamine at a final conc. of 7.5 μg/ml. Transfections were carried out as described by Dean et al. (1994, JBC 269 p. 16416 16424). In short cells were incubated with Lipofectamine diluted in OptiMEM for 7-10 min followed by the addition of the oligonucleotide to total volume of 8.7 ml per T75 flask. 4 hours following transfection cells were washed in OptiMEM and grown at 37° C. for 12-96 hours in complete growth medium with or without the addition of 2-100 nM Taxol (Sigma Aldrich). Cells were harvested for either mRNA extraction, Caspase 3/7 assay or fixed, stained with PI and analysed by FACS analysis.
Cell culturing and transfections: As in example 13.
Fixation and PI staining: Cells were washed in PBS, harvested and resuspended in 100 μl in ice cold PBS. 900 μl ice cold 70% […] and fixed cells were kept at −20 until use. […]
SEQ ID NO. 2 transfected 15PC3 cells were exposed to different concentrations of Taxol and analysed by Propidium Iodide staining and subsequent FACS analysis (FIG. 7a-c). […]

Data set [6] has as its system complementary RNA. Description: Measurement of melting temperature (Tm) of the duplex. The format is binding. The settings on record: 3 μM, 10 mM sodium phosphate/100 mM NaCl/0.1 nM EDTA, pH 7.0. As for the experimental part:
Measurement of melting temperature (Tm) of the compounds: A 3 μM solution of SEQ ID NO. 2 in 10 mM sodium phosphate/100 mM NaCl/[…], pH 7.0 was mixed with its complement DNA/RNA 3 μM in 10 mM sodium phosphate/100 mM NaCl/[…], pH 7.0 at 90° C. for a minute and allowed to cool to room temperature. The Tm of the duplex was then determined by increasing the temperature 1° C./min. from 25 to 95° C. The Tm of SEQ ID NO.

The mark [7] stands for this setting: Survivin mRNA down-regulation relative to mock, normalised to GAPDH, standard deviation in brackets, at least three experiments.
Where [8] appears, read: 48 hours (Table 7, FIG. 5), read-out: Proliferation IC50 (48 hours).

Where two headings read alike, the source gives them in different places. Oligonucleotides are written 5' to 3', each unit as a sugar letter and its base; * is a phosphorothioate linkage, no mark a phosphodiester; rarer units and linkages stand in square brackets, end groups in braces. Plain capitals give the bases only. l = locked nucleic acid (LNA); [5mC] = 5-methylcytosine; d = 2'-deoxy (DNA)

As to “^MeCsTscscscsasgscsgstsgscsgs^MeCs^MeCsa (l[5mC]*lT*dC*dC*dC*dA*dG*dC*dG*dT*dG*dC*dG*l[5mC]*l[5mC]*dA) [SEQ ID NO. 26, reference compound]”, the “Survivin mRNA expression” value in data set [1] (10 nM, 24 hours, single agent or combined with control oligonucleotides) is “does not have any effect on Survivin”.

As for “5′-Gs^MeCsAsGstsgsgsastsgsasasGs^MeCs^MeCsA-3′ (lG*l[5mC]*lA*lG*dT*dG*dG*dA*dT*dG*dA*dA*lG*l[5mC]*l[5mC]*lA) [SEQ ID NO. 23, reference compound]”, in data set [2] (5 nM), the “Apoptosis At 5 nM, 24 hours” value was 2-fold. In addition, the “Max Apoptosis” value in data set [2] is 5.5-fold. Further, in data set [1] (setting [7]), the IC50 turned out to be 2.5 nM and the “IC75 [nM]” value was 6.2 (1.6) nM.

Turning to “5′-Gs^MeCsAs^MeCsasgststsgsasasas^MeCsAsTsc-3′ (lG*l[5mC]*lA*l[5mC]*dA*dG*dT*dT*dG*dA*dA*dA*l[5mC]*lA*lT*dC) [SEQ ID NO. 22]”, the IC50 in data set [3] (setting [8]) came out at 25 nM. In data set [2] (5 nM), the “Apoptosis At 5 nM, 24 hours” value is given as “No activity”. For the same substance, the “Max Apoptosis” value in data set [2] is on record as 2.5-fold.

Regarding “^MeCsGs^MeCsAsgsaststsasgsasasAs^MeCs^MeCst (l[5mC]*lG*l[5mC]*lA*dG*dA*dT*dT*dA*dG*dA*dA*lA*l[5mC]*l[5mC]*dT) [SEQ ID NO. 24, negative control oligonucleotide, design 4-8-3-1]”, in data set [4], the “Induction of early and late apoptosis (Annexin V-FITC/PI staining)” value is “do not induce apoptosis”. Moreover, in data set [3] (0.2, 1, 5, 25 and 100 nM, 13-72 hours after transfection, 15PC3 cells), the “Proliferation (relative number of viable cells)” value is given as “does not”. In addition, the IC50 in data set [3] (48 hours, transfected 15PC3 cells (Table 5), read-out: Inhibition of proliferation, MTS assay IC50 (48 hours)) came out at 86.9 nM. For the same substance, the “Maximum Induction Fold-induction of apoptosis, Caspase 3/7 assay” value in data set [2] (100 nM, 48 hours, 15PC3 cells) was 3.1 x (100 nM, 48 hours). Moreover, the “Fold induction of apoptosis, Caspase 3/7 assay” value in data set [2] (24 hours, 5 nM, 15PC3 cells, relative to mock) is 1.5 x. Besides, the “Effect on the cell cycle” value in data set [5] was “no effect on the cell cycle”.

On to “TsGsTsGscstsaststscstsgstsgsAsAsTsT (lT*lG*lT*lG*dC*dT*dA*dT*dT*dC*dT*dG*dT*dG*lA*lA*lT*lT) [SEQ ID NO. 21]”, for which the IC50 in data set [3] (setting [8]) worked out at 25 nM. For the same substance, the “Tm (° C.) complementary RNA” value in data set [6] came out at 62.7 °C. The “Apoptosis At 5 nM, 24 hours” value in data set [2] (5 nM) is given as “No activity”. For the same substance, the “Max Apoptosis” value in data set [2] was 2.5-fold.

The values are drawn from patent publication US8173428B2, “LNA oligonucleotides and the treatment of cancer” (Santaris Pharma A/S, priority 2004, dated 2012).
